Data on one compound can be found in US20050038103A1, “Uses of dorzolamide” (priority 2003, published 2005).

Data set [1] is described as follows: Night vision of patients being treated for glaucoma. In kind it is in vivo, human.
The conditions of data set [2]: Sponsel et al., 1997; Harris et al., 1999; cited from earlier work.
The conditions of data set [3]: cited from earlier work.
The nature of data set [4]: Visual fields in a patient with retinitis pigmentosa. Particulars: for improvement in visual field: gtts (i) ou bid.
The nature of data set [5]: Visual acuity (Snellen's chart) in patients with age-related macular degeneration. Particulars: AMD patients.

As to `CCN[C@H]1C[C@H](C)S(=O)(=O)c2sc(S(N)(=O)=O)cc21` [dorzolamide], the night vision entry in data set [1] is reported as “improved the night vision”. For the same compound, in data set [2], the contrast sensitivity entry is recorded as “enhance contrast sensitivity”. Also, the perimetric light sensitivity entry in data set [2] is reported as “increase perimetric light sensitivity”. For the same compound, in data set [3] (Harris et al., 1996), the “capillary dye transit in macula and optic nerve head” value is “enhance capillary dye transit in macula and optic nerve head”. Further, the retinal arteriovenous passage result in data set [3] (Harris et al., 1999, 1996, 2001) is reported as “accelerate retinal arteriovenous passage”. Besides, in data set [3] (Schmidt et al., 1998), the “increase of ocular pulse amplitude” value was 18-19%. In addition, the safety result in data set [4] (gtts (i) bid) and in data set [5] (gtts (i) bid) was “very safe” throughout. Besides, the “improvement in visual field” value in data set [4] (five weeks) is reported as “marked improvement in visual field in the left eye”; in data set [4] (nine weeks), “still more marked improvement in both eyes”. Also, in data set [5] (gtts (i) bid in one eye, one month), the “improvement in visual acuity (one more line on Snellen's chart)” value is recorded as “Most patients demonstrated objective (and subjective) improvement in visual acuity in one month”.
